Results reported in PMC4778748 (Bioorganic & medicinal chemistry, 2016).

Experiments:
h12/15-LOX [1] = molecular target: T1, h12/15-LOX (Homo sapiens, UniProt P16050); assay: Lipoxygenase UV-Vis-based IC50 assay; format: biochemical; settings: for loss of potency against h12/15-LOX relative to parent: SAR comparison of IC50 values
T1 sequence (P16050 1-662): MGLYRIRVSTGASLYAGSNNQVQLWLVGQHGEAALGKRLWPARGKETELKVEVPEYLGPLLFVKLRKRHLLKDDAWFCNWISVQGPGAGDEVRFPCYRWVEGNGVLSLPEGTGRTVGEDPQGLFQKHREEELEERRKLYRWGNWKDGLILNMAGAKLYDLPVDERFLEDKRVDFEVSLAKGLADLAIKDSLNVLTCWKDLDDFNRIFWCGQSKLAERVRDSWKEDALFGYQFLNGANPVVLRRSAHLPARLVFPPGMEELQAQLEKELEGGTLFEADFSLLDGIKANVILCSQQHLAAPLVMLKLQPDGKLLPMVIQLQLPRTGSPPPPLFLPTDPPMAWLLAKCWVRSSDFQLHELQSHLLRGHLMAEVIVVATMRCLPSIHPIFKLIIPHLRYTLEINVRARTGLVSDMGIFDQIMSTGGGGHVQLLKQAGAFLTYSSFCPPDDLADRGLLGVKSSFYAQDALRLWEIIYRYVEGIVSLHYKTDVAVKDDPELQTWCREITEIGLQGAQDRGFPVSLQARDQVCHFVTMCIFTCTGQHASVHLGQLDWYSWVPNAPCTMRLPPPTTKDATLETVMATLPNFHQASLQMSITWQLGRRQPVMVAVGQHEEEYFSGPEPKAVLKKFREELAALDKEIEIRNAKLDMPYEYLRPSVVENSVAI

HT-22 cells = assay: HT-22 cellular assay; format: cell-based; settings: Mus musculus, HT-22, read-out: approximate cellular EC50 (ex vivo IC50) in HT-22
h12/15-LOX [2] = molecular target: T1, h12/15-LOX; assay: Pseudoperoxidase assay; settings: 20 µM inhibitor, 20 µM 13-HpODE, 60 nM enzyme
h12/15-LOX [3] = molecular target: T1, h12/15-LOX; assay: Steady-state inhibition kinetics
[4] = Solubility limit of inhibitor in enzyme assay; format: physicochemical; settings: concentrations above 35 µM
[5] = cited from earlier work
[6] = cited from earlier work; remark: listed apart in the source
[7] = cited from earlier work; remark: listed apart in the source
[8] = tested on: dog ortholog of 12/15-LOX; settings: cited from earlier work
[9] = tested on: rat ortholog of 12/15-LOX; settings: cited from earlier work
h5-LOX = molecular target: T2, h5-LOX (Homo sapiens, UniProt P09917); assay: Selectivity assay; format: biochemical; settings: read-out: inhibition of h5-LOX (positive control)
T2 sequence (P09917 1-674): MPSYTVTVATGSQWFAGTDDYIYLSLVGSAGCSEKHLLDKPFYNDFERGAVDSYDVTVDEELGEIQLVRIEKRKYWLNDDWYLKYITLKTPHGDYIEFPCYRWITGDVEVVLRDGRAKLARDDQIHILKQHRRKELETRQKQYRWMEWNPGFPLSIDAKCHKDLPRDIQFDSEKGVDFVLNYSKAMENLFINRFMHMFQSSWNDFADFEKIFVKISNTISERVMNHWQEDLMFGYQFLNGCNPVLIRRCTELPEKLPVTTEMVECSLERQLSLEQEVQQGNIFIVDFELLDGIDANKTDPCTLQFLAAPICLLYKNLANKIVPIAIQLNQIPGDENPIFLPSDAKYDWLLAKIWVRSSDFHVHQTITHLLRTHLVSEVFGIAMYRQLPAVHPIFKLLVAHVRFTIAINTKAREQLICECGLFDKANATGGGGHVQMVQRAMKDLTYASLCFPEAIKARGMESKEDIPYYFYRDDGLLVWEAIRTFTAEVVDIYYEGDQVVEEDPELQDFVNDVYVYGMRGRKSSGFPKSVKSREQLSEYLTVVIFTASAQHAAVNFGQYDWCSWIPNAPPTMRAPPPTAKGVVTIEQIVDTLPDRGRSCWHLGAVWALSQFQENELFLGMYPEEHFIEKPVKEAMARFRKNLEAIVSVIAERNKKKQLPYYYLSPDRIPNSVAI

[10] = tested on: rabbit reticulocyte 12/15-LOX; settings: cited from earlier work

## COc1ccc(C(=O)c2c[nH]nc2-c2cc(C)ccc2O)cc1 [Compound 4]
h12/15-LOX [1]
  loss of potency against h12/15-LOX relative to parent: over 10 fold

## Cc1ccc(-c2cc(-c3ccc(C)cc3O)[nH]n2)cc1 [Compound 18]
h12/15-LOX [1]
  loss of potency against h12/15-LOX relative to parent: greater than 15 fold

## Cc1ccc(O)c(-c2cc(-c3ccccc3C)[nH]n2)c1 [Compound 99089]
HT-22 cells
  EC50: ~10 µM
h12/15-LOX [2]
  degradation of 13-HpODE (redox activity): not observed
h12/15-LOX [1]; read-out: %Inhibition (20 µM), 20 µM inhibitor, 10 µM AA, 0.01% Triton X-100
  inhibition at 20 µM: > 90%
h12/15-LOX [3]
  Ki: 6 ± 3.3 µM
h12/15-LOX [3]; steady-state kinetics
  mode of inhibition: mixed type inhibitor
[4]
  solubility in assay buffer: solubility problems

## Cc1ccc(O)c(-c2cc(C(=O)NCc3ccccc3)[nH]n2)c1 [Compound 3]
h12/15-LOX [1]
  loss of potency against h12/15-LOX relative to parent: over 10 fold

## CNc1oc(-c2cccc3ccccc23)nc1C#N [ML351, 5-(methylamino)-2-(naphthalene-1-yl)oxazole-4-carbonitrile]
[5]
  in vivo activity in mice: exhibits in vivo activity

## O=C(OCC#CCSc1nnc(-c2cccc3ccccc23)o1)c1cccs1 [ML094, 4-(5-(Naphthalen-1-yl)-1,3,4-oxadiazol-2-ylthio)but-2-ynylthiophene-2-carboxylate]
[6]
  activity in cell-based assays: lacks activity

## O=C(Nc1ccc(F)cc1Cl)c1c[nH]nn1 [BLX-2477, N-(2-chloro-4-fluorophenyl)triazole-4-carboxamide]
[7]
  off-target effects in mini-pigs: adverse off-target effects
[8]
  potency against dog ortholog: did not exhibit potency
[9]
  potency against rat ortholog: did not exhibit potency

## CC(c1cc2ccccc2s1)N(O)C(N)=O (stereo not shown) [Zileuton]
h5-LOX
  inhibition at 20 µM: 97%

## c1ccc2c(c1)SCc1c-2[nH]c2ccccc12 [PD-146176]
[10]
  IC50: 0.81 µM
